Test results from patent US20260056187A1, “METHODS OF FORMING PATIENT-DERIVED 3D CELL CULTURES FOR TRACKING LIVE IMMUNE-TUMOR INTERACTIONS” (OUROTECH, INC., priority 2022, published 2026).

How the values were obtained:
[1] = test system: kidney tumor cells with PBMCs (1:5); experiment: 3D tumor-immune co-culture, combination therapies, change in tumor cell numbers over 3 days (Example 19); conditions: normalized to Day 0, staurosporine 5 μM, axitinib 10 μM + pembrolizumab 10 μg/mL, n=3
[2] = test system: TNBC cell line xenografts (CDXs); conditions: BRGS-HIS mice with TNBC CDXs; cited from earlier work
[3] = test system: 3D tumor-immune culture from a patient with renal cell carcinoma (tumor cells and matched PBMCs); experiment: 3D tumor-immune culture, Keytruda treatment compared to CD3 activation, live cell imaging over 5 days (Example 17); assay type: cell-based, human; conditions: for tumor-containing hydrogel dome volume: 10 μg/mL Keytruda vs CD3-activated/control culture, evident by Day 1
Experimental: A) An aliquot of pembrolizumab (25 mg/mL) was diluted in PBS to achieve a working stock of 1 mg/mL. 2 μL of this stock is added to the tumor-immune culture to achieve a final dose of 10 μg/mL. In parallel, 2 μL of a 1 mg/mL stock of human anti-IgG4 is added to a negative control tumor-immune culture.
A tumor sample and matched blood sample from a patient with renal cell carcinoma were prepared according to the foregoing Examples and methods. Briefly, PBMCs were isolated from blood and CD8^+ and CD8^− cells were separated, stained, and recombined as previously described. PBMCs were either cultured with 1 μg/mL anti-CD3 or 10 μg/mL Keytruda for 18 hours. Tumors were dissociated and stained and 10,000 cells were encapsulated in hydrogel as previously described. At TO, 100,000 PBMCs from each condition were added to tumor cultures. Live cell imaging, using confocal microscopy, was conducted each day for 5 days and images were analyzed using the disclosed computer vision pipeline. The presented data are from single replicates obtained from one experiment.

## CN[C@@H]1C[C@H]2O[C@@](C)([C@@H]1OC)n1c3ccccc3c3c4c(c5c6ccccc6n2c5c31)C(=O)NC4 [Staurosporine]
[1]
  change in tumor cell count: decreased tumor cell count the most

## nivolumab
[2]
  time after treatment until significant effect on tumor volume relative to vehicle control: ≥ 10 days

## pembrolizumab [Keytruda]
[3]; 10 μg/mL Keytruda or 1 μg/mL anti-CD3, over 5 days, single replicate
  clustering of hydrogel-infiltrated CD8+ PBMCs: more clustering over time
[3]; 10 μg/mL Keytruda vs CD3-activated sample, Day 1
  rate of dome volume shrinking: higher at Day 1
[3]; 10 μg/mL Keytruda vs CD3-activated sample, evident by Day 2, single replicate
  viability of tumor cells / tumor cell death: increased tumor cell death
[3]; 10 μg/mL Keytruda vs CD3-activated sample, over 5 days, single replicate
  speed of CD8+ PBMCs infiltrated into the hydrogel (migration peak speed): higher CD8^+ cell migration peak speed
[3]; single replicate
  tumor-containing hydrogel dome volume: dome volume shrinks more
[3]; single replicate, listed as Keytruda/pembrolizumab
  tumor-containing hydrogel dome volume: measurable, and noticeable, and may be statistically significantly different, by one day after adding the treatment
[3]; 10 μg/mL Keytruda vs CD3 activation, throughout 5 days, single replicate
  clustering of hydrogel-infiltrated CD8- and CD8+ PBMCs together: clustered together more
[3]; PBMCs cultured 18 hours with 10 μg/mL Keytruda vs 1 μg/mL anti-CD3, evident as early as Day 1, single replicate
  infiltration of CD8+ PBMCs into the tumor-containing hydrogel (absolute counts): increased infiltration of CD8^+ cells into the tumor-containing hydrogel
